{
  "source": "ChEMBL document CHEMBL5537109",
  "about": "“Natural products as potential lead compounds to develop new antiviral drugs over the past decade” (Eur J Med Chem, 2023)",
  "biological_target": "Neuraminidase (Influenza A virus (A/Puerto Rico/8/1934(H1N1)), UniProt P03468, H274Y)",
  "test": "Inhibition of influenza A virus H1N1 neuraminidase H274Y mutant",
  "data": [
    {"smiles": "C[C@@H]1C[C@H](C)C(=O)[C@@H]2O[C@@H]2[C@@H]2[C@@H](O)[C@@H]3OC4=C(C(=O)O[C@@]42C[C@H]3C)C1=O", "values": [
      {"measurement": "IC50", "value": "> 44.2", "unit": "µM"}
    ]}
  ]
}
